The results in this text go back to patent US8329703B2, “Pyrazole compounds” (XTL Biopharmaceuticals Ltd., priority 2005, dated 2012).

Series [1] has as its system HCV RNA (HCV Replicon) in Huh-Luc-Neo cells. Kind of series: HCV Replicon RNA Assay (Taqman quantitative PCR). The note with it: Hepatitis C virus, 48 h, 2 compound treatments over 48 h, no unit printed in table (b307 gives IC50s in μM). In kind it is cell-based. On the procedure:
(§1) The identification of inhibitors of HCV replication and/or proliferation has been facilitated by the development of a cell based system to study HCV replication and assay for HCV inhibitors. Inhibition of HCV replication may be performed using the HCV Replicon Assay developed in the laboratories of Bartenschlager (Lohman et al, Science 285, 110-113, 1999) and Rice (Blight et al, Science 290, 1972-1974, 2000). The assay is performed using the Huh-Luc-Neo cell line (Lohman et al, Science 285, 110-113, 1999). Huh-Luc-Neo cells are a human hepatoma cell line (Huh-7) stably expressing a bi-cistronic subgenomic replicon containing the HCV IRES in which the […] of HCV had been deleted and replaced by a construct containing sequences coding for the firefly luciferase reporter gene, the neomycin selectable marker and the EMCV IRES to direct expression of a truncated HCV genome expressing the […] NS3, NS4A, NS4B, NS5A, and NS5B. HCV targets through which inhibitors could act to inhibit replication include the NS3 protease, the helicase/ATPase, NS5A, the NS5B-RNA dependent RNA polymerase, and the HCV IRES.
(§2) Expression of HCV IRES driven luciferase reporter activity and HCV RNA is measured to obtain indirect and direct measures of replication of HCV RNA respectively. Inhibitors of HCV replication and/or proliferation are determined by initially identifying molecules that inhibit expression of the HCV IRES driven luciferase reporter in this HCV Replicon Luciferase Assay. Cell viability assays and control cell based luciferase assays are then run on hits identified in the HCV Replicon Luciferase Assay to eliminate cytoxic compounds and non-specific compounds which act by inhibiting the luciferase enzyme.
Day 0, Cell Seeding and Compound Treatment: Huh-Luc-Neo Cells are seeded at 25,000/well in an opaque-walled 96 plate with Growth Medium (DMEM phenol red free+PS+2 mM glutamine; 100 μl/well). The compounds to be tested are added to the experimental wells (10 μl/well at 10× assay concentration) and the cells are then incubated (5% CO2, 37° C.).
Day 1, Media Change and Compound Treatment: 24 hours after the initial compound treatment the cell culture media is aspirated from the wells and fresh Growth Medium is added (DMEM phenol red free+PS+2 mM glutamine; 100 μl/well). The compounds to be tested are then added to the appropriate experimental wells (10 μl/well at 10× assay concentration) and the cells are then incubated (5% CO2, 37° C.) for an additional 24 hrs.
Day 2, RNA Isolation and cDNA Synthesis: The cells are washed with 1× Phosphate Buffered Saline (PBS) once.
(§3) Day 3, Quantitative PCR Based Measurement of HCV RNA (Taqman Assay): Quantitative PCR analysis to measure HCV RNA expression from cDNA synthesized on Day 2 is performed using the ABI 9700 HT Sequence Detection System (Applied Biosystems) as previously described (Lohman et al, Science 285, 110-113, 1999). The data is analyzed and IC50s are determined using GraphPad Prism 4 software. Hits validated in the Replicon RNA Assay have IC50s<8.0 μM and show <30% inhibition of Cell Viability at a compound concentration of 50 μM (Cell Titer Glow Assay, cell viability assay conditions identical to HCV Replicon RNA Assay conditions).

Series [2] deals with HCV Replicon (HCV IRES driven luciferase reporter) in Huh-Luc-Neo cells. Kind of series: HCV Replicon Luciferase Assay. The note with it: Hepatitis C virus, 48 h. In kind it is cell-based. On the procedure: as §1, §2
Day 0, Cell Seeding and Compound Treatment: Huh-Luc-Neo Cells are seeded at 25,000/well in an opaque-walled 96 plate with Growth Medium (DMEM phenol red free+PS+2 mM glutamine; 100 μl/well). The compounds to be tested are added to the experimental wells (10 μl/well at 10× assay concentration) and the cells are then incubated (5% CO2, 37° C.) for 48 h.
(§4) Day 2, Reagent Preparation and Luciferase Assay: The Bright-Glo Luciferase Assay Buffer (Promega) is thawed and equilibrated to room temperature prior to use. The lyophilized Bright-Glo Luciferase Assay Substrate is equilibrated to room temperature prior to use. 10 ml of Bright-Glo Luciferase Assay Buffer is transferred to 1 vial of Bright-Glo Luciferase Assay Substrate bottle and mixed by gently with a Vortex. 100 ul of Bright-Glo Luciferase Assay reagent (Bright-Glo Luciferase Assay Buffer+Bright-Glo Luciferase Assay Substrate Mixture) is added to each well. The well contents are mixed for 5 min. on an orbital shaker at room temperature to induce cell lysis and the luminescence is then measured using a luminometer. The data is analyzed and IC50s are determined using GraphPad Prism 4 software. Hits validated in the Replicon Luciferase assay have IC50s<8.0 μM and show <30% inhibition of Cell Viability at a compound concentration of 100 μM (Cell Titer Glow Assay, cell viability assay conditions identical to HCV Replicon Luciferase Assay conditions).
(A replicon is a self-replicating genome or part of one, used to study replication in cells.)

In the next series the test system is Huh-Luc-Neo cells. Nature of the series: Cell Titer-Glo Cell Viability Assay. The class given is cell-based, human. As to conditions: for Toxicity % Inhibition at 50 μM (2 doses): inhibition of cell viability at 50 μM, conditions identical to HCV Replicon RNA Assay; for Toxicity % Inhibition at 100 μM (1 dose): inhibition of cell viability at 100 μM, conditions identical to HCV Replicon Luciferase Assay (48 h). As to the method: as §4, §3
Day 0, Cell Seeding and Compound Treatment: Huh-Luc-Neo Cells are seeded at 25,000/well in an opaque-walled 96 plate with Growth Medium (DMEM phenol red free+PS+2 mM glutamine; 100 ul/well).
Day 2, Reagent Preparation and Assay: The CellTiter-Glo Buffer is thawed and equilibrated to room temperature prior to use. The lyophilized CellTiter-Glo Substrate is equilibrated to room temperature prior to use. 10 ml of CellTiter-Glo Buffer is transferred to 1 vial of CellTiter-Glo Substrate and mixed by gently with a Vortex. 100 μl of CellTiter-Glo Assay reagent (CellTiter-Glo Buffer+CellTiter-Glo Substrate Mixture) is added to each well. The well contents are mixed for 5 min. on an orbital shaker at room temperature to induce cell lysis and the luminescence is then measured using a luminometer.
Background: ATP-based viability assays read luminescence as a measure of living cells.

[3] abbreviates: Huh-Luc-Neo cells, no unit printed in table (b301 gives IC50s in μM), read-out: Luciferase IC50.
Setting [4] is: read-out: Luciferase IC50, Huh-Luc-Neo cells, 48 h, no unit printed in table (b301 gives IC50s in μM).

Molecules are shown by their SMILES. Like-named read-outs stand apart in the source and are kept apart here.

In the case of `Cn1cc(C#CC(C)(C)C)c(-c2cc(NC(=O)c3cccc(Cl)c3)ccc2O)n1` [VQ_35559], the IC50 (in general, the concentration at which inhibition is half-maximal) in series [1] amounted to 1.98 µM. The IC50 in series [2] (setting [3]) is 9.5 µM. In addition, in the series on Huh-Luc-Neo cells, the “Toxicity % Inhibition at 50 μM (2 doses)” value is recorded as 15.8% and the “Toxicity % Inhibition at 100 μM (1 dose)” value is reported as 24.2%.

On to `CC(=O)c1ccc(N2CCN(C(=O)c3c(C#CC(C)(C)C)c(-c4cc(Cl)ccc4O)nn3C)CC2)cc1` [VQ_36649], for which the IC50 in series [1] was found to be 0.4 µM. Further, the IC50 in series [2] (setting [3]) was determined as 9.7 µM. In the series on Huh-Luc-Neo cells, the “Toxicity % Inhibition at 50 μM (2 doses)” value was found to be 12.1% and the “Toxicity % Inhibition at 100 μM (1 dose)” value is given as 7.3%.

In series [1], `C=CCNc1ccc([N+](=O)[O-])cc1-c1nn(C)cc1C#CC(C)(C)C` [VQ_36658] returned an IC50 of 0.4 µM. Also, the IC50 in series [2] (setting [3]) was determined as 0.04 µM. Also, in the series with Huh-Luc-Neo cells, the “Toxicity % Inhibition at 50 μM (2 doses)” value was determined as 38.8% and the “Toxicity % Inhibition at 100 μM (1 dose)” value was 21.8%.

In series [1], `Cn1cc(C#CC(C)(C)C)c(-c2cc([N+](=O)[O-])ccc2NCc2cc(F)cc(F)c2)n1` [VQ_36659] yielded an IC50 of 0.3 µM. In addition, in series [2] (read-out: Luciferase IC50), the IC50 was found to be 0.04 µM. Further, in the series with Huh-Luc-Neo cells, the “Toxicity % Inhibition at 50 μM (2 doses)” value is listed as 21.9% and the “Toxicity % Inhibition at 100 μM (1 dose)” value amounted to 13.0%.

Take `Cn1cc(C#CC(C)(C)C)c(-c2cc([N+](=O)[O-])ccc2NCC(C)(C)CNc2ccc([N+](=O)[O-])cc2-c2nn(C)cc2C#CC(C)(C)C)n1` [VQ_36660]: it took 0.59 µM to reach half-maximal inhibition in series [1] (IC50). In addition, the concentration for half-maximal inhibition (IC50) in series [2] (setting [4]) worked out at 10.4 µM. Also, in the series with Huh-Luc-Neo cells, the “Toxicity % Inhibition at 50 μM (2 doses)” value was determined as 15.8% and the “Toxicity % Inhibition at 100 μM (1 dose)” value was 15.3%.

`Cn1cc(C#CC(C)(C)C)c(-c2cc([N+](=O)[O-])ccc2NC2CCCCC2)n1` [VQ_36661]: the IC50 in series [1] is 0.55 µM. Further, the concentration for half-maximal inhibition (IC50) in series [2] (setting [3]) stood at 0.63 µM. For the same compound, in the series with Huh-Luc-Neo cells, the “Toxicity % Inhibition at 50 μM (2 doses)” value came to 14.4% and the “Toxicity % Inhibition at 100 μM (1 dose)” value is recorded as 9.5%.

Consider `Cn1cc(C#CC(C)(C)C)c(-c2cc([N+](=O)[O-])ccc2NCc2c(F)cccc2F)n1` [VQ_36665], for which, in series [1], the half-inhibitory concentration (IC50) came to 0.72 µM. Also, the IC50 in series [2] (setting [3]) is 0.03 µM. In the series with Huh-Luc-Neo cells, the “Toxicity % Inhibition at 50 μM (2 doses)” value was 25.6% and the “Toxicity % Inhibition at 100 μM (1 dose)” value worked out at 12.8%.

As for `CC(Nc1ccc([N+](=O)[O-])cc1-c1nn(C)cc1C#CC(C)(C)C)c1ccccc1` (stereo not shown) [VQ_36666], the IC50 in series [1] turned out to be 0.38 µM; in series [2] (setting [3]) it was 0.35 µM. In the series with Huh-Luc-Neo cells, the “Toxicity % Inhibition at 50 μM (2 doses)” value is recorded as 19.0%. The “Toxicity % Inhibition at 100 μM (1 dose)” value with Huh-Luc-Neo cells stood at 12.9%.

In the case of `Cc1cnc(Nc2ccc([N+](=O)[O-])cc2-c2nn(C)cc2C#CC(C)(C)C)s1` [VQ_36669], in series [1], it took 0.9 µM to reach half-maximal inhibition (IC50). Also, the IC50 in series [2] (setting [3]) worked out at 0.01 µM. In the series with Huh-Luc-Neo cells, the “Toxicity % Inhibition at 50 μM (2 doses)” value was 26.7% and the “Toxicity % Inhibition at 100 μM (1 dose)” value was found to be 23.2%.

On to `Cn1cc(C#CC(C)(C)C)c(-c2cc([N+](=O)[O-])ccc2NCCCNc2ccc([N+](=O)[O-])cc2-c2nn(C)cc2C#CC(C)(C)C)n1` [VQ_36673], for which, in series [1], the IC50 was determined as 0.42 µM. The IC50 in series [2] (setting [4]) was determined as 2.09 µM. Further, in the series on Huh-Luc-Neo cells, the “Toxicity % Inhibition at 50 μM (2 doses)” value is given as 19.7% and the “Toxicity % Inhibition at 100 μM (1 dose)” value stood at 15.9%.
